Key:
Format in all cases: cell-based, rat
[1] = system: myoblasts isolated from the WT EOMs; assay: EdU proliferation of EOM-derived myoblasts treated with TSHR antagonist; details: 10 μM, 2 days, serum-free, EdU pulse 24 h, vs DMSO
Experimental: To evaluate the functional importance of the expression of TSHR in the MSCs of the EOMs, the myoblasts were isolated from the WT EOMs and treated with a selective antagonist of the TSH receptor, ML224 (Neumann et al., 2014).
(§1) For this, the myoblasts derived from MSC were treated with 10 μM of ML224 (HY12381-S, CliniSciences) for 2 days (proliferation) or 7 days (differentiation) or 20 μM of forskolin (F3917, Sigma-Aldrich) (following experiment) only for 48 h. The control cells were treated with DMSO (D8418, Sigma Aldrich) as a vehicle for ML224 and forskolin.
The proliferation was measured after 24 h of culture by adding to the culture medium a pulse of […] of 5-ethynyl-20-deoxyuridine (EdU) for 24 h (EdU Click-iT PLUS Kit C10640, Life Technologies).
This experiment is carried out under serum-free conditions in order to prevent any stimulation of TSHR by the presence of TSH in the serum, which explains the lowest proliferative capacity of the myoblasts of the EOMs treated with the vehicle, relative to the data presented above (FIG. 3I).

[2] = system: myoblasts isolated from the WT EOMs; assay: Myogenic differentiation (MF20 staining, fusion index) of EOM myoblasts; details: 10 μM, 7 days, vs DMSO
Experimental: For this, the cells were fixed with 4% PFA for 10 minutes at 4° C. and permeabilized with 0.5% Triton in 1×PBS for 6 minutes. After blocking with 10% BSA for 30 minutes at room temperature, the cells were incubated O/N at 4° C. with the following primary antibodies: Pax7 (Santa Cruz Biotechnology, sc-81648), MyoD (Dako, clone 5.8A, M3512), ki67 (Abcam, sp6 ab16667), sarcomeric myosin heavy chain (MF20, DSHB, AB_2147781).
The cell suspension was passed through cell filters and centrifuged at 600 g/minute for 5 minutes, at 4° C. The supernatant was removed and the cell pellet was resuspended in 20% fetal bovine serum (Cat #S1810-500 Dominique Dutscher) in DMEM (Cat #41966-029 Gibco) supplemented by 25 ng/mL of bFGF (RP4037, Sigma-Aldrich) with […] of penicillin/streptomycin (354234, Life Sciences) covered with matrigel (Sarstedt, #94.6140.802). The cells were grown for 48 hours to evaluate the proliferation. After 48 h of proliferation, the cells were cultured for 5 days in 5% fetal bovine serum to induce differentiation.
as §1

[3] = system: Cdkn1a (p21) and Cdkn2a (p16) expression in EOM-derived myoblasts; assay: qPCR of senescence markers in EOM-derived myoblasts; details: EOM satellite cells in culture, 10 μM, vs DMSO
Experimental: The absence of Cdkn1a and Cdkn2a transcripts is also validated as well as the specific expression of TSHR on muscle satellite cells freshly isolated from EOMs by qRT-PCR (FIG. 6D): The RNA is extracted using the total RNA isolation kit RNAqueous-Micro (Invitrogen) and back-transcribed using SuperScript™ III reverse transcriptase (Invitrogen, 18080093) according to the manufacturer's instructions.
The qPCR is carried out using the StepOnePlus real-time PCR system (Applied Biosystems) and SYBR Green detection tools (Applied Biosystems).
The results are reported as relative gene expression (2-DDCT) using the vehicle-treated cells or the extra-ocular derived myoblasts as a reference. Gene expression is normalized on the expression levels of β-actin.
as §1

COc1ccc(C2Nc3ccccc3C(=O)N2Cc2ccco2)cc1COc1c(C)cc(NC(C)=O)cc1C (centres unmarked) [ML224]
Proliferative myoblasts (Pax7+/MyoD+/EdU+ cells) relative to vehicle [1]: significant decrease | Differentiation / formation of myotubes [2]: differentiation defects | Fusion index compared to vehicle control [2]: significant reduction | Expression of Cdkn1a (p21) [3]: induced the expression | Expression of Cdkn2a (p16) [3]: induced the expression

Source: US20240343779A1, “PHARMACOLOGICAL AND/OR GENETIC ACTIVATOR FOR USE IN PRESERVING AND REGENERATING MUSCLE STRUCTURE AND FUNCTION BY BLOCKING SENESCENCE” (ASSOCIATION FRANCAISE CONTRE LES MYOPATHIES, priority 2021, published 2024)
